Laboratory results as given in ChEMBL document CHEMBL5252613, “Discovery and anti-tumor activity of 4-(benzylamino)-6-(3,5-dimethylisoxazol-4-yl)quinolin-2(1H)-one (CG13250), a potent, selective and orally bioavailable BET bromodomain inhibitor” (Bioorg Med Chem Lett, 2023).

Columns and labels:
[1] = molecular target: T1, Bromodomain-containing protein 4 (Homo sapiens, UniProt O60885); assay: Inhibition of BRD4 bromodomain 1/2 (unknown origin) assessed as dissociation constant by DiscoveRx BROMOscan assay
MV4-11 = assay: Growth inhibition of human MV4-11 cells measured after 72 hrs; assay type: functional
[2] = molecular target: T1, Bromodomain-containing protein 4; assay: Inhibition of BRD4 bromodomain 1/2 (unknown origin) by Alphascreen assay

| SMILES | Kd [1] [nM] | GI50 (MV4-11) [nM] | IC50 [2] [nM] |
| --- | --- | --- | --- |
| Cc1noc(C)c1-c1ccc2[nH]c(=O)cc(NCc3cccc(C(F)(F)F)c3)c2c1 | 220 |  |  |
| Cc1noc(C)c1-c1ccc2[nH]c(=O)cc(NCc3cccc(Br)c3)c2c1 | 53 | 731 |  |
| Cc1noc(C)c1-c1ccc2[nH]c(=O)cc(NCCc3ccccc3)c2c1 | 490 | 5720 |  |
| Cc1noc(C)c1-c1ccc2[nH]c(=O)cc(N3CCCC3)c2c1 | 370 | 1990 |  |
| Cc1noc(C)c1-c1ccc2[nH]c(=O)cc(N3CCCCC3)c2c1 | 54 | 833 |  |
| Cc1ccc(-c2nnc(Sc3c(-c4ccccc4)c4cc(Br)ccc4[nH]c3=O)n2N)cc1 |  | 220 | 3700 |
| Cc1noc(C)c1-c1ccc2[nH]c(=O)cc(NCc3ccccc3Br)c2c1 | 210 | 3500 |  |
| Cc1noc(C)c1-c1ccc2[nH]c(=O)cc(NCC3CCCCC3)c2c1 | 250 | 3780 |  |
| Cc1noc(C)c1-c1ccc2[nH]c(=O)cc(NCc3ccccc3F)c2c1 | 130 |  |  |
| COc1cccc(CNc2cc(=O)[nH]c3ccc(-c4c(C)noc4C)cc23)c1 | 95 | 1580 |  |
